Laboratory results: patent publication US8592174B2, “Peptidase substrates” (bioMérieux, S.A., priority 2009, dated 2013)

Experiments:
[1] = system: Bacillus subtilis NCTC 9 372; test: Peptidase detection on Columbia medium (Example 2); format: cell-based; parameters: key to Growth: NG: No growth; 0.5: weak growth; 1: moderate growth; 2: good growth; key to Fluo. / Color / Color post-acid.: —: no color; settings: 40 mg in 400 ml Columbia, 24 h 37° C.
[2] = system: Staphylococcus aureus NCTC 6 571; test: Peptidase detection on Columbia medium (Example 2); format: cell-based; parameters: key to Growth: NG: No growth; 0.5: weak growth; 1: moderate growth; 2: good growth; key to Fluo. / Color / Color post-acid.: —: no color; settings: 40 mg in 400 ml Columbia, 24 h 37° C.
[3] = system: Candida glabrata NCPF 3 943; test: Peptidase detection on Columbia medium (Example 2); format: cell-based; parameters: key to Growth: NG: No growth; 0.5: weak growth; 1: moderate growth; 2: good growth; key to Fluo. / Color / Color post-acid.: —: no color; settings: 40 mg in 400 ml Columbia, 24 h 37° C.
[4] = system: Yersinia enterocolitica NCTC 11 176; test: Peptidase detection on Columbia medium (Example 2); format: cell-based; parameters: key to Growth: NG: No growth; 0.5: weak growth; 1: moderate growth; 2: good growth; settings: 40 mg in 400 ml Columbia, 24 h 37° C.
[5] = system: Enterococcus faecalis NCTC 775; test: Peptidase detection on Columbia medium (Example 2); format: cell-based; parameters: key to Growth: NG: No growth; 0.5: weak growth; 1: moderate growth; 2: good growth; key to Fluo. / Color / Color post-acid.: —: no color; settings: 40 mg in 400 ml Columbia, 24 h 37° C.
[6] = system: Candida albicans ATCC 90 028; test: Peptidase detection on Columbia medium (Example 2); format: cell-based; parameters: key to Growth: NG: No growth; 0.5: weak growth; 1: moderate growth; 2: good growth; key to Fluo. / Color / Color post-acid.: —: no color; settings: 40 mg in 400 ml Columbia, 24 h 37° C.
[7] = system: Gram-negative bacteria, Gram-positive bacteria, yeasts; settings: conclusion of Example 2
Description: 40 mg of each of the substrates were dissolved in 4 ml of dimethyl sulfoxide (80 mg for Asn-ASQM^+) and added to 400 ml of previously autoclaved Columbia medium. The 6 media were distributed into Petri dishes 90 mm in diameter, in a proportion of 20 ml per dish.
Seventeen strains of microorganisms stemming from collections and belonging to various species of bacteria and yeasts are inoculated in spots of approximately 10 000 colony-forming units.
The media are incubated for 24 hours at 37° C., and then the colonies formed are examined visually, with or without the addition of acid and under a UV lamp at 365 nm.

[8] = system: Salmonella typhimurium NCTC 74; test: Peptidase detection on Columbia medium (Example 2); format: cell-based; parameters: key to Growth: NG: No growth; 0.5: weak growth; 1: moderate growth; 2: good growth; settings: 40 mg in 400 ml Columbia, 24 h 37° C.
[9] = system: Staphylococcus epidermidis NCTC 11 047; test: Peptidase detection on Columbia medium (Example 2); format: cell-based; parameters: key to Growth: NG: No growth; 0.5: weak growth; 1: moderate growth; 2: good growth; key to Fluo. / Color / Color post-acid.: —: no color; settings: 40 mg in 400 ml Columbia, 24 h 37° C.
[10] = system: Streptococcus pyogenes NCTC 8 306; test: Peptidase detection on Columbia medium (Example 2); format: cell-based; parameters: key to Growth: NG: No growth; 0.5: weak growth; 1: moderate growth; 2: good growth; key to Fluo. / Color / Color post-acid.: —: no color; settings: 40 mg in 400 ml Columbia, 24 h 37° C.
[11] = system: Enterobacter cloacae NCTC 11 936; test: Peptidase detection on Columbia medium (Example 2); format: cell-based; parameters: key to Growth: NG: No growth; 0.5: weak growth; 1: moderate growth; 2: good growth; settings: 40 mg in 400 ml Columbia, 24 h 37° C.
[12] = system: Staphylococcus aureus NCTC 11 939; test: Peptidase detection on Columbia medium (Example 2); format: cell-based; parameters: key to Growth: NG: No growth; 0.5: weak growth; 1: moderate growth; 2: good growth; key to Fluo. / Color / Color post-acid.: —: no color; settings: 40 mg in 400 ml Columbia, 24 h 37° C.
[13] = system: Listeria monocytogenes NCTC 11 994; test: Peptidase detection on Columbia medium (Example 2); format: cell-based; parameters: key to Growth: NG: No growth; 0.5: weak growth; 1: moderate growth; 2: good growth; key to Fluo. / Color / Color post-acid.: —: no color; settings: 40 mg in 400 ml Columbia, 24 h 37° C.
[14] = system: Serratia marcescens NCTC 10 211; test: Peptidase detection on Columbia medium (Example 2); format: cell-based; parameters: key to Growth: NG: No growth; 0.5: weak growth; 1: moderate growth; 2: good growth; settings: 40 mg in 400 ml Columbia, 24 h 37° C.
[15] = system: Escherichia coli NCTC 10 418; test: Peptidase detection on Columbia medium (Example 2); format: cell-based; parameters: key to Growth: NG: No growth; 0.5: weak growth; 1: moderate growth; 2: good growth; settings: 40 mg in 400 ml Columbia, 24 h 37° C.
[16] = system: Pseudomonas aeruginosa NCTC 10 662; test: Peptidase detection on Columbia medium (Example 2); format: cell-based; parameters: key to Growth: NG: No growth; 0.5: weak growth; 1: moderate growth; 2: good growth; settings: 40 mg in 400 ml Columbia, 24 h 37° C.
[17] = system: Enterococcus faecium NCTC 7 171; test: Peptidase detection on Columbia medium (Example 2); format: cell-based; parameters: key to Growth: NG: No growth; 0.5: weak growth; 1: moderate growth; 2: good growth; key to Fluo. / Color / Color post-acid.: —: no color; settings: 40 mg in 400 ml Columbia, 24 h 37° C.
[18] = system: Providencia rettgeri NCTC 7 475; test: Peptidase detection on Columbia medium (Example 2); format: cell-based; parameters: key to Growth: NG: No growth; 0.5: weak growth; 1: moderate growth; 2: good growth; settings: 40 mg in 400 ml Columbia, 24 h 37° C.

NCCC(=O)Nc1ccc(C=Cc2ccc3ccccc3n2)cc1 [β-Ala-ASQ, β-alanyl-2-(4′-amidostyryl)quinoline]
Color [1]: — | Growth [1]: NG | Fluo. ([1]; UV lamp 365 nm): — | Color post-acid. ([1]; addition of acid): — | Color [2]: — | Growth [2]: NG | Fluo. ([2]; UV lamp 365 nm): — | Color post-acid. ([2]; addition of acid): — | Color [3]: — | Growth [3]: NG | Fluo. ([3]; UV lamp 365 nm): — | Color post-acid. ([3]; addition of acid): — | Growth [4]: 2 | Color post-acid. ([4]; addition of acid): Pale yellow | Color [5]: — | Growth [5]: NG | Fluo. ([5]; UV lamp 365 nm): — | Color post-acid. ([5]; addition of acid): — | Color [6]: — | Growth [6]: NG | Fluo. ([6]; UV lamp 365 nm): — | Color post-acid. ([6]; addition of acid): — | toxicity / growth of microorganisms [7]: toxic with respect to certain groups | Growth [8]: 2 | Color post-acid. ([8]; addition of acid): Pale yellow | Color [9]: — | Growth [9]: NG | Fluo. ([9]; UV lamp 365 nm): — | Color post-acid. ([9]; addition of acid): — | Color [10]: — | Growth [10]: NG | Fluo. ([10]; UV lamp 365 nm): — | Color post-acid. ([10]; addition of acid): — | Growth [11]: 2 | Color post-acid. ([11]; addition of acid): Pale yellow | Color [12]: — | Growth [12]: NG | Fluo. ([12]; UV lamp 365 nm): — | Color post-acid. ([12]; addition of acid): — | Color [13]: — | Growth [13]: NG | Fluo. ([13]; UV lamp 365 nm): — | Color post-acid. ([13]; addition of acid): — | Growth [14]: 2 | Fluo. ([14]; UV lamp 365 nm): Green | Color post-acid. ([14]; addition of acid): Orange | Growth [15]: 2 | Color post-acid. ([15]; addition of acid): Pale yellow | Growth [16]: 2 | Fluo. ([16]; UV lamp 365 nm): Green | Color post-acid. ([16]; addition of acid): Orange | Color [17]: — | Growth [17]: NG | Fluo. ([17]; UV lamp 365 nm): — | Color post-acid. ([17]; addition of acid): — | Growth [18]: 2 | Color post-acid. ([18]; addition of acid): Pale yellow
